The values that follow are results of earlier work, collected in patent US6132766A, “Multivesicular liposomes with controlled release of encapsulated biologically active substances” (priority 1998, dated 2000).

For series [1] the following is noted: unencapsulated drug; about.
In series [2] the test system is strains of both gram negative and gram positive bacteria. The conditions noted are these: background statement.

Structures are written as SMILES.

In the case of `NCC[C@H](O)C(=O)N[C@@H]1C[C@H](N)[C@@H](O[C@H]2O[C@H](CN)[C@@H](O)[C@H](O)[C@H]2O)[C@H](O)[C@H]1O[C@H]1O[C@H](CO)[C@@H](O)[C@H](N)[C@H]1O` [amikacin], the serum half-life result in series [1] was “two to three”. Moreover, in series [2], the “activity against strains of both gram negative and gram positive bacteria” value is reported as “clinically significant activity”.
